Test results as given in US20250255847A1, “[…]s: Novel Drugs for Triple Negative Breast Cancer” (SIMMARON RSEARCH INC, priority 2024, published 2025).

Molecular target: T1, STAT3 (pY705, pS727) (Homo sapiens, UniProt P40763)
T1 construct: endogenous in cells; host or cells: MDA-MB-468
Assay: JAK/STAT phospho antibody array, phospho-STAT3 in EGF-treated MDA-MB-468 cells
Format: cell-based
Conditions: EGF (25 ng) + 5 nM compound, 6 hrs
Procedure: FIG. 5 illustrates an embodiment of the present invention and illustrates evaluations of SIM-1 and SIM-2 as STAT3 inhibitors. (A) Protein thermal shift assay was performed to assess the melting of purified recombinant STAT3 (blue; 0.5 μg protein) (Tm=melting temperature=68.88° C.). The representative melting curves were derived after adding SIM-1 (red; 4 nM), SIM-2 (purple; 8 nM), and positive control stattic (grey; 20 nM) to the STAT3 protein. The differences of melting temperature (ΔTm) between pure protein and protein+ligands are −4.54° C., −4.16° C., and 0.39° C. for SIM-1, SIM-2, and stattic (ΔTm^cut-off>2° C.). […] Each colored arrowhead represents a specific phosphoprotein, and the description was added in the bottom of array images. […] Similarly, full-length STAT5b protein melting was assessed with (J) SIM-1, (K) SIM-2, and (L) stattic. […]
Protein array. […] After that, cells were scrapped with 1×TBS, lysed with lysis buffer supplemented with protease and phosphatase inhibitor cocktail, measured for total protein concentration ([…]), diluted 5 times with assay diluent buffer and then applied along with biotin-labeled probes on the glass membrane coated with antibodies. […]
Next, the present invention evaluated if these compounds as disclosed in the present invention as small-molecule inhibitors targeting STAT3 activation, inhibited the activation of STAT3, but not other STATs. […]

T1 sequence (P40763 whole entry): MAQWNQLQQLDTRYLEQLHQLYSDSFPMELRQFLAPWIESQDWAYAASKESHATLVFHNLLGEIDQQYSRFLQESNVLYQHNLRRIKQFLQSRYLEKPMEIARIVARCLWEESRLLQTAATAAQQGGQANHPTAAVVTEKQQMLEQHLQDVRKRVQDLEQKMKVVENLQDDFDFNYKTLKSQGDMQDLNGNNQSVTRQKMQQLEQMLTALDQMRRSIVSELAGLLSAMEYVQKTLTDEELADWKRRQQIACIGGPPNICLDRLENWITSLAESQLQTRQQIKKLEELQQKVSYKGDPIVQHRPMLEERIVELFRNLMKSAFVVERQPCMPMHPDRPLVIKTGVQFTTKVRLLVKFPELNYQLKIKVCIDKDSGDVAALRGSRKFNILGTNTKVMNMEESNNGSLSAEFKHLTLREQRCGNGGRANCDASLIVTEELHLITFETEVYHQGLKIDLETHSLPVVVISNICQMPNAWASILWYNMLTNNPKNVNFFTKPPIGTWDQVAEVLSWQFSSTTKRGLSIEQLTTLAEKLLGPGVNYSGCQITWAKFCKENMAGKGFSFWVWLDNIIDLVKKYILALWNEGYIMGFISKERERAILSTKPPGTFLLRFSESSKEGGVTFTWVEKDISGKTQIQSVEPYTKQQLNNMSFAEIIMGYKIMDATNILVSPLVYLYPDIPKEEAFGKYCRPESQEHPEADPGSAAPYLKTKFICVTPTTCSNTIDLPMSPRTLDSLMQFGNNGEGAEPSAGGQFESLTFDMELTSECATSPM

Row | SMILES | levels of pY705 STAT3
1 | CCOC(=O)c1c(NC(C)=O)sc2c(Cl)c(/C=N/O)ccc12 [SIM-2, ethyl 2-acetamido-7-chloro-6-(hydroxyiminomethyl)-1-benzothiophene-3-carboxylate] | strongly and selectively suppressed
2 | O=C(O)CCC(=O)NCc1csc2ccc(Cl)cc12 [SIM-1, 4-[(5-chloro-1-benzothiophen-3-yl)methylamino]-4-oxobutanoic acid] | strongly and selectively suppressed
